Assay: xn = mol fraction of the nth substance listed
Settings: 101 kPa

CCC(C)O (centres undefined) + CCOS(=O)(=O)[O-].CC[n+]1ccn(C)c1
x2 = 0
Settings | viscosity [mPa·s]
298.15 K | 2.58
303.15 K | 2.27
313.15 K | 1.77
318.15 K | 1.58
323.15 K | 1.41

CCC(C)O (centres undefined) + CC[n+]1ccn(C)c1.O=S(=O)([O-])C(F)(F)F
x2 = 0
Settings | viscosity [mPa·s]
298.15 K | 2.58
303.15 K | 2.27
313.15 K | 1.77
318.15 K | 1.58
323.15 K | 1.41

CCOS(=O)(=O)[O-].CC[n+]1ccn(C)c1 + CCC(C)O
viscosity [mPa·s]
Settings | x1 = 0.1032 | x1 = 0.2027 | x1 = 0.2937 | x1 = 0.3936 | x1 = 0.4906 | x1 = 0.5916 | x1 = 0.6944 | x1 = 0.7957 | x1 = 0.8916 | x1 = 1
298.15 K | 4.62 | – | 9.73 | 14.02 | 19.79 | 28.15 | – | – | 71.7 | 96.2
303.15 K | 4.29 | – | 9.16 | 12.67 | – | 24 | 33 | 44 | – | 75.9
308.15 K | 3.46 | 5.31 | 7.53 | – | 14.29 | 20.49 | 27.81 | 36.7 | – | 60.7
313.15 K | 2.94 | – | 6.51 | – | 13.06 | – | 23.65 | 30.7 | 38.7 | –
318.15 K | 2.56 | – | 5.76 | 8.37 | 11.43 | 15.38 | 20.32 | 26.1 | 32.5 | 40.9
323.15 K | 2.03 | 3.36 | – | 7.36 | 10.09 | 13.57 | 17.64 | 22.35 | 27.4 | 33.8

CC[n+]1ccn(C)c1.O=S(=O)([O-])C(F)(F)F + CCC(C)O
viscosity [mPa·s]
Settings | x1 = 0.1092 | x1 = 0.1945 | x1 = 0.2945 | x1 = 0.3938 | x1 = 0.4988 | x1 = 0.5952 | x1 = 0.6907 | x1 = 0.7986 | x1 = 0.903 | x1 = 1
298.15 K | 3.95 | 5.32 | 6.57 | 7.9 | 10.59 | 15.33 | 22.63 | – | 39.43 | –
303.15 K | 3.47 | 4.65 | 5.76 | – | – | – | 19.37 | – | 33.21 | 38.31
308.15 K | 3.09 | 4.1 | 5.07 | – | 8.23 | 11.65 | 16.75 | 22.22 | – | 32.28
313.15 K | 2.75 | – | 4.51 | 5.5 | – | – | – | 19.09 | 24.05 | –
318.15 K | 2.46 | 3.24 | 4.03 | 4.94 | – | 9.13 | 12.84 | 16.7 | – | 23.86
323.15 K | 2.21 | 2.9 | 3.61 | 4.44 | 5.91 | 8.17 | – | 14.66 | – | 20.75
